Results reported in ChEMBL document CHEMBL1201862, “PubChem BioAssay data set” (2004).
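48-hour exposure; five concentrations; linearly interpolated endpoints. GI50 is the concentration that inhibits growth by half.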 Calls of active or inactive are those of the source. No stated cut-off is given here; in the data, active = GI50 up to about 1.1 µM and inactive = higher.

Key:
Assay in all cases: NCI-60 cell line screen, 48 h
[1] = test system: BT-549
[2] = test system: MDA-N
[3] = test system: SNB-78
[4] = test system: DMS-273
[5] = test system: XF498
[6] = test system: M19-MEL
[7] = test system: DMS-114
[8] = test system: LXFL 529
[9] = test system: RXF 631

Structure (SMILES) | GI50 [1] | GI50 [2] | other results
O=C(O)Cn1ccc(=O)c2ccc([N+](=O)[O-])cc21 | > 100 µM (inactive) | > 100 µM (inactive) | 
O/N=C(/C(Cl)=C(Cl)Cl)C(Cl)Cl | 21.3 µM (inactive) | 17 µM (inactive) | 
Cc1cc2c(cc1Cl)SC(NS(=O)(=O)c1ccc(Cl)cc1)=NS2(=O)=O | 42.7 µM (inactive) |  | 
CC(C)=CCC[C@@H](C)/C=C/C=C(\C)C(=O)CC[C@@H]1CC[N@+]2(C)CCCC[C@H]12 | 65.6 µM (inactive) | > 100 µM (inactive) | 
[N-]=[N+]=NC1CC(n2cc(COCC(F)(F)F)c(=O)[nH]c2=O)OC1CO (stereo unspecified) |  |  | GI50 [3]: > 100 µM (inactive); GI50 [4]: > 100 µM (inactive); GI50 [5]: > 100 µM (inactive); GI50 [6]: > 100 µM (inactive); GI50 [7]: > 100 µM (inactive); GI50 [8]: > 100 µM (inactive)
Cc1nc(Nc2ccc([N+](=O)[O-])cc2)sc1C(=O)/C=C/c1ccc(N(C)C)cc1 |  |  | GI50 [4]: 77.3 µM (inactive); GI50 [9]: > 100 µM (inactive); GI50 [6]: > 100 µM (inactive); GI50 [7]: 59.4 µM (inactive)
C1=CC2C=CC(C=C1)P2c1ccccc1 (stereo unspecified) | > 100 µM (inactive) | > 100 µM (inactive) | 
NC(Cc1ccccc1)C(=O)OCN1C(=O)C2C3C=CC(C2C1=O)C1C2C(=O)N(COC(=O)C(N)Cc4ccccc4)C(=O)C2C31 (stereo unspecified) |  |  | GI50 [7]: 16.1 µM (inactive); GI50 [8]: 20.5 µM (inactive)
Oc1ccccc1/C=N/Nc1nc(N/N=C/c2ccccc2O)nc(N/N=C/c2ccccc2O)n1 | 85.3 µM (inactive) | > 100 µM (inactive) | 
Cc1ccc2c(c1)C(=C(C#N)C#N)CCCS2(=O)=O | > 100 µM (inactive) | > 100 µM (inactive) | 
Cc1ccc(C2=C(C#N)C(=O)N3CCN=C3S2)cc1 | > 100 µM (inactive) | > 100 µM (inactive) | 
CCCCCCc1nn2c(-c3ccncc3)nnc2s1 | > 10 µM (inactive) | > 10 µM (inactive) | 
OC[C@H]1N[C@H](CO)[C@@H](O)[C@H]1O | > 100 µM (inactive) | > 10 µM (inactive) | 
O=C(/C(=C/c1cccs1)c1ccccc1)c1ccccc1 | > 100 µM (inactive) | > 100 µM (inactive) | 
COc1cccc2c1C(=O)C1(O)CCCCC21 (stereo unspecified) |  |  | GI50 [3]: > 100 µM (inactive); GI50 [4]: > 100 µM (inactive); GI50 [6]: > 100 µM (inactive); GI50 [7]: > 100 µM (inactive); GI50 [8]: > 100 µM (inactive)
COc1cc2nc(-c3cccs3)nc(Cl)c2cc1OC | > 100 µM (inactive) |  | 
COc1ccc2[nH]c3c(O)nncc3c2c1 |  |  | GI50 [3]: > 100 µM (inactive); GI50 [4]: > 100 µM (inactive); GI50 [6]: > 100 µM (inactive); GI50 [7]: > 100 µM (inactive); GI50 [8]: > 100 µM (inactive)
CN(C)CCCn1nc(N)c2nc3cc(Cl)ccc3nc21 | > 100 µM (inactive) | 52.7 µM (inactive) | 

Structure (SMILES) | GI50 [1] | GI50 [2] | other results
CN(C)CCCNC(=O)N/N=C/c1cccc([N+](=O)[O-])c1 |  |  | GI50 [3]: > 100 µM (inactive); GI50 [4]: > 100 µM (inactive); GI50 [5]: 5.93 µM (inactive); GI50 [7]: > 100 µM (inactive); GI50 [8]: > 100 µM (inactive)
N#C/C=c1/c2ccccc2n2nc3ccccc3c12 | > 100 µM (inactive) | > 100 µM (inactive) | 
CC(C)(C)C(=O)C(CC(=O)c1ccccc1)C(=O)C(C)(C)C |  | > 100 µM (inactive) | 
[N-]=[N+]=NC(c1cn(C2CC(O)C(CO)O2)c(=O)[nH]c1=O)C(Cl)Br (stereo unspecified) |  |  | GI50 [3]: > 100 µM (inactive); GI50 [4]: > 100 µM (inactive); GI50 [6]: > 100 µM (inactive); GI50 [7]: > 100 µM (inactive); GI50 [8]: > 100 µM (inactive)
O=C1NC(=S)N/C1=C/c1c(-c2ccccc2)[nH]c2ccccc12 | 12.6 µM (inactive) | 14.9 µM (inactive) | 
Cc1nc(Nc2ccccc2Cl)sc1C(=O)CC(=O)C(=O)Nc1c(Cl)cccc1Cl | 24.2 µM (inactive) | 40 µM (inactive) | 
COc1cc(CNc2nc3cc(C(F)(F)F)ccc3nc2C(=O)O)cc(OC)c1OC | 29.8 µM (inactive) | 21.5 µM (inactive) | 
COc1cc2nc3c(=C(C#N)C#N)c4ccccc4n3c(=O)c2cc1OC | > 100 µM (inactive) | > 100 µM (inactive) | 
COc1ccc(C2CCc3c(cnc4nc(N)nc(N)c34)C2)cc1 (stereo unspecified) | 44.7 µM (inactive) | 1.04 µM (active) | 
CC1(C)OC[C@@H](/C=C\CCO[Si](c2ccccc2)(c2ccccc2)C(C)(C)C)N1C(=O)c1ccccc1 | 18.5 µM (inactive) | 15.8 µM (inactive) | 
O=c1c2ccccc2n2c(S)nnc2n1-c1ccccc1 |  | > 100 µM (inactive) | 
Clc1ccc(C2=NNC(c3cccc(Cl)c3)C2)cc1 (stereo unspecified) |  | 21.1 µM (inactive) | 
Cc1ccc(/N=N/c2ccc(O)c(CN(C)C)c2)cc1 | 23.1 µM (inactive) | 16.2 µM (inactive) | 
Cc1ccc(O)c(-c2csc(NCN3CCN(CNc4nc(-c5cc(C)ccc5O)cs4)CC3)n2)c1 | > 100 µM (inactive) | > 100 µM (inactive) | 
COc1ccc(C(C)NNC(=O)c2ccncc2)c(OC)c1 (stereo unspecified) | > 100 µM (inactive) | > 100 µM (inactive) | 
O=[N+]([O-])c1ccc2c(c1)OCCOCCOc1ccc([N+](=O)[O-])cc1OCCOCCO2 |  |  | GI50 [3]: > 100 µM (inactive); GI50 [4]: > 100 µM (inactive); GI50 [7]: > 100 µM (inactive)
CC(=O)Oc1ccn2nc(C)c(Br)c2c1Br | 26 µM (inactive) | 17.6 µM (inactive) | 
CCO/N=C\c1ccc2oc(-c3ccccc3)cc(=O)c2c1 | 1.06 µM (active) | 0.0143 µM (active) | 
